Like-named read-outs stand apart in the source and are kept apart here. Marks after values point to notes of the source that are not given here.
Columns and labels:
Format in all cases: in vivo, Balb/c-nu/nu mice
[1] = system: animal models xenografted with HT-29 colon cancer cell line
Method: (§1) 6-wk-old Balb/c-nu/nu female mice weighing 20±2 g were obtained from Orient Inc., and housed in animal rooms under a temperature of 23±1° C., relative humidity of 55±15%, and 12-hour light/dark illumination cycle. […] After acclamation for 1 week, 100 μl of HT-29 cells (5×10^6 cells/mouse) were subcutaneously injected into the flank of the Balb/c nu/nu mouse, and the mice were observed by the naked eyes. The mice were randomized into groups when the tumor size reached 150 mm^3, and then drug administration was initiated. Voluntary motor activity (running wheel activity) and forced motor activity (swimming test) were measured after the administration of anticancer drug and drugs was completed, and the amount of glycogen synthesized in the muscle was assayed through an ELISA kit after the tissue taken from the femoral region on the final date of autopsy was homogenized. Running wheel activity (Running distance=meter/10 min)
(§2) All the examples and comparative examples were diluted in phosphate buffered saline (PBS) according to the dosage, and compulsorily administered to the animals using needle for oral administration (Sonde). The dosage was diluted in PBS to 100 mg/kg of body weight, and the dosage was calculated such that 100 μl/20 g was administered depending on the weight measured on the day of administration. Test materials were administered at the same time once per day, at 10 AM, for 4 weeks, for the examples and comparative examples.
Evaluation was conducted in the same conditions as in test example 1, except that all the examples and comparative examples were compared in the conditions of treatment with an anticancer drug. The treatment with 5-FU as an anticancer drug was conducted at 30 mg/kg three times per week.

[2] = system: animal models xenografted with HT-29 colon cancer cell line; assay: Running wheel activity (voluntary motor activity), test example 1; details: HT-29 xenografted mice, 100 mg/kg oral, every day for 4 weeks
Method: as §1
The voluntary motor activity was measured as the parameter of cancer-related fatigue (CRF) through running wheel activity. The number of wheels ran for a total of 10 min on 300Ø wheel was counted, and running distance was calculated. *Running distance=circumference (30 cm×3.14)×number of wheels/10 min […]

[3] = system: animal models xenografted with HT-29 colon cancer cell line; assay: Swimming test (forced motor activity), test example 1; details: HT-29 xenografted mice, 100 mg/kg oral, every day for 4 weeks
Method: as §1
A transparent temperature-constant water bath (500 mm×500 mm×400 mm), which maintained the designated temperature and water level, was filled with warm water (23±1° C.), and then the animals were subjected to forced swimming (FS). The swimming time immediately after total exhaustion was recorded. […]

[4] = system: animal models xenografted with HT-29 colon cancer cell line; assay: Glycogen synthesized in femoral muscle (ELISA kit) under radiation treatment, test example 3
Method: as §1, §2
Evaluation was conducted in the same conditions as in test example 1, except that all the examples and comparative examples were compared in the conditions of radiation treatment. The radiation treatment was conducted at 10 Gy three times per week.

## O=c1[nH]cc(F)c(=O)[nH]1 [Example 5-FU, 5-fluorouracil]
[1]; mouse, in vivo
  Mean Muscle Glycogen (mg/g), 5-FU control: 3.6 ± 0.34 mg/g
  reduction of amount of glycogen synthesis compared with the normal groups: 51.4%

## NC(=O)C[S+]([O-])C(c1ccccc1)c1ccccc1 (stereo not drawn) [Comparative example 12, Modafinil]
[2]
  Running distance for 10 min (meter/10 min): 80.1 ± 1.9** meter/10 min
[2]; vs xenograft control
  Incerase (%) in running distance for 10 min, compared with control: 52.6%
[3]; forced swimming to exhaustion, water 23±1° C.
  Total swimming time: 731.8 ± 60.1 s
[3]; vs xenograft control
  Increase (%) in swimming time, compared with control: 63.5%
[1]; HT-29 xenografted mice, co-administered with 5-FU 30 mg/kg i.p. 3 days per week, 100 mg/kg oral daily for 4 weeks, femoral muscle
  Mean Muscle Glycogen: 4.3 ± 0.5 mg/g
[1]; co-administered with 5-FU 30 mg/kg i.p. 3 days per week, 100 mg/kg oral daily for 4 weeks, vs 5-FU control
  Increase (%) in glycogen synthesis, compared with control: 18.4%
[1]; co-administered with 5-FU for 4 weeks
  amount of glycogen synthesis compared with control group administered with the anticancer drug (in words): did not show any great change
[4]; HT-29 xenografted mice, with radio therapy 10 Gy 3 days per week, oral daily for 4 weeks, femoral muscle
  Mean Muscle Glycogen: 3.9 ± 0.2 mg/g
[4]; combined with radiation treatment for 4 weeks
  amount of glycogen synthesis compared with control group treated with radiation (in words): did not show any great change
[4]; with radio therapy 10 Gy 3 days per week, oral daily for 4 weeks, vs radio therapy control
  Increase (%) in glycogen synthesis, compared with control: 7.9%

From patent US11464821B2, “Composition for reducing cancer cachexia or weight loss caused by anticancer drug therapy or radiation therapy comprising ginseng extract having increased ginsenoside Rg3 and Rh2” (GREEN CROSS WELLBEING CORPORATION, priority 2013, dated 2022)
